Data from ChEMBL document CHEMBL1781876, “Design, synthesis and inhibition activity of a novel cyclic enediyne amino acid conjugates against MPtpA” (Bioorg Med Chem, 2011).

Molecular target: T1, Low molecular weight protein-tyrosine phosphatase A (Mycobacterium tuberculosis, UniProt P9WIA1)
T1 sequence (P9WIA1 whole entry): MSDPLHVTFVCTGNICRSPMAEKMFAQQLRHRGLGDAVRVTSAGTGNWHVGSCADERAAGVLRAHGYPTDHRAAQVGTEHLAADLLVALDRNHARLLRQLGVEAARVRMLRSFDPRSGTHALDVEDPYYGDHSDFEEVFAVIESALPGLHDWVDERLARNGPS
Assay: Non-competitive inhibition of Mycobacterium tuberculosis PTPA using p-nitrophenyl phosphate as substrate by Lineweaver-Burk plot analysis

In the case of `O=C(O)/C1=C/C#Cc2ccccc2C#CCCNC1=O`, the IC50 is reported as 110 µM and the Ki is reported as 22.5 µM.

In the case of `O=C(O)C1CCCc2ccccc2CCCCNC1=O` (racemic), the IC50 is reported as 236 µM and the Ki is reported as 101 µM.
